Source: patent US12649718B2, “Synthesis of n,n-dimethyltryptamine-type compounds, methods, and uses preliminary class 548” (CYBIN UK LTD, priority 2019, dated 2026)

Experiments:
humans = conditions: 0.05 mg/kg to 0.4 mg/kg; bolus injections or prolonged infusions; only mild to moderate adverse effects; cited from earlier work
[1] = hashed area of FIG. 2; cited from earlier work
[2] = Solubility in water (vessel cleaning note); format: physicochemical; conditions: Stage 3 vessel cleaning information
[3] = tested on: individuals who have ingested 5-MeO-DMT; conditions: cited from earlier work
[4] = cited from earlier work
[5] = self-report, uncontrolled setting, Davis et al. 2018

CN(C)CCc1c[nH]c2ccccc12 [DMT, N, N-dimethyltryptamine]
Tolerability (humans): well-tolerated | Effect site concentrations experienced as full dissociation from the external world [1]: > 60 ng/mL

CN(C)CCc1c[nH]c2ccccc12.O=C(O)/C=C/C(=O)O [API, N,N-DMT fumarate]
Solubility in water [2]: API highly soluble

COc1ccc2[nH]cc(CCN(C)C)c2c1 [Mixture 5-MeO-DMT, 5-methoxy-N, N-dimethyltryptamine]
Individuals with alcoholism or hazardous drinking reporting improvements ([3]; n=75 out of 113): 66% | Participants indicating symptoms improved: anxiety [3, 5]: 69% | Participants indicating symptoms improved: depression [3, 5]: 77% | Participants indicating symptoms improved: post-traumatic stress disorder [3, 5]: 79% | Half-life ([4]; rapidly metabolized, H-W. Shen et al. 2010): 12 to 19 min | Oral bioavailability ([4]; without coadministration alongside a monoamine oxidase inhibitor): not orally bioavailable
